Results: patent publication US20090280166A1, “FERRITIN AS A THERAPEUTIC TARGET IN ABNORMAL CELLS” (The Penn State Research Foundation, priority 2005, published 2009)
Entries after “also recorded” stand apart in the source; their conditions may differ.

Assays:
H-ferritin = test: Ferritin in nuclear and cytoplasmic fractions after DFO, alloxan and FAC treatments (Western blot); assay type: cell-based, human; conditions: SW1088 cells
Excerpt: FIGS. 9A-9C show nuclear import of ferritin is inhibited by alloxan, whereas cytoplasmic levels of ferritin are not affected. Under resting conditions, SW1088 cells contain ferritin in both nuclear and cytoplasmic compartments. […] The reappearance of ferritin in cytoplasmic and nuclear compartments after DFO treatment (alone) or treatment with DFO+alloxan is affected by the presence of alloxan (alx) and/or FAC in the culture medium. FIG. 9A is a schematic illustration of the experimental procedure, showing the time course of changes in culture conditions. FIG. 9B is a scan of Western blots of nuclear (N) and cytoplasmic (C) extracts of SW1088 cells, resolved by SDS/PAGE. Samples of the nuclear extract contained 20 μg of total protein, whereas samples of the cytoplasmic extract contained […] of total protein. Ferritin was detected with HS-59 mouse monoclonal antibody and horseradish peroxidase-conjugated goat anti-mouse IgG. Lane a, extracts from cells cultured in medium containing 100 μM DFO; lane b, extracts of cells cultured in normal medium; lane c, extracts of cells cultured in 100 μM FAC; lane d, extracts of cells cultured in 100 μM DFO+1 mM alloxan; lane e, extracts of cells cultured in normal medium supplemented with 1 mM alloxan; lane f, extracts of cells cultured in medium supplemented with 100 μM FAC+1 mM alloxan. FIG. 9C is a graph showing a summary of ferritin contents. The relative amounts of ferritin in the nuclear (black bars) and cytoplasmic (striped bars) fractions were measured after an initial treatment with DFO alone or DFO+[…] and a subsequent culture in the presence of DFO alone, normal medium, medium supplemented with FAC, medium supplemented with DFO+alloxan, normal medium+alloxan or normal medium+FAC and alloxan. The relative amounts of ferritin are normalized to the amount of ferritin in the corresponding fractions before the initial DFO treatment.
DFO and alloxan treatments: The iron chelator DFO was used to examine the effect of iron chelation on ferritin localization in the nuclei of astrocytoma cells. Cells were cultured in the presence of 100 μM DFO for 72 h. Alloxan, an inhibitor of O-glycosylation, was used in astrocytoma cell cultures at final concentrations of 0.1 and 1.0 mM. Six cultures were established in parallel and allowed to reach 80% confluence. The first three were treated with 100 μM DFO for 72 h, then rinsed in Hanks balanced salt solution to remove the free DFO and returned to standard medium alone or to a medium containing 0.1 mM FAC (ferric ammonium citrate) or 0.1 mM DFO. After these treatments, culturing was continued for 24 h. Another set of three cultures were treated with 100 μM DFO+1 mM alloxan for 72 h. The cells were rinsed in Hanks balanced salt solution to remove free reagents and returned to standard medium containing 1 mM alloxan or a medium containing 0.1 mM FAC+[…] or a medium containing 100 μM DFO+1 mM alloxan. After these treatments, the culturing was continued for 24 h. At the end of the culture period, cells were harvested and nuclear and cytosolic fractions were prepared as described below.
Nuclear and cytosolic fractions: Plated astrocytoma cells were rinsed in Hanks balanced salts, trypsinized and the cells were collected by centrifugation (800 g for 10 min). The pelleted cells were rinsed twice in ice-cold PBS buffer [0.01 M sodium phosphate (pH 7.4 at 25° C.), 138 mM NaCl and 2.7 mM KCl] and collected by centrifugation. The cell pellets were resuspended in 20 vol. of 10 mM Hepes (pH 7.9 at 25° C.), 1.5 mM MgCl2, 10 mM NaCl and 0.5 mM DTT (dithiothreitol) containing the following protease inhibitors: AEBSF (1 mM), aprotinin (0.8 μM), leupeptin (20 μM), bestatin (40 μM), pepstatin (15 μM) and E-64 (14 μM). Cell suspensions were incubated in ice for 30 min and collected by centrifugation. […]

[1] = Cell viability assay (MTT) of alloxan-treated cells; assay type: cell-based, human; conditions: human, SW1088 astrocytoma cells, 1 mM alloxan, read-out: cells remaining viable (MTT)
Method: (§1) FIG. 10 is a graph showing alloxan inhibits protein O-glycosylation in SW1088 human astrocytoma cells. Cells were grown in triplicate independent cultures in the presence of 0, 100, 500 μM and 1 mM concentrations of alloxan. Aliquots of whole cell lysates from each culture were applied to a nitrocellulose membrane using a vacuum slot blot device. The membrane was blocked in a 5% solution of non-fat dry milk at 21±1° C. for 1 h and incubated overnight with mouse monoclonal anti-O-GlcNAc antibody. Immunocomplexes were detected and quantified. As an internal control for this assay, membrane loadings of 1 (♦), 5 (▪) and 10 (▴) μg of total protein were tested and they gave similar responses to changes in the concentration of alloxan in the original cultures.
(§2) Cell viability assay: Cell viability measurement was performed using the reagent 3-(4,5-dimethylthiazol-2-yl)-2,5-diphenyl-2H-tetrazolium bromide (MTT), obtained from Roche Applied Science (Indianapolis, Ind., U.S.A.). The assay was performed according to the manufacturer's instructions.
(§3) The effect of alloxan on ferritin redistribution is probably due to its influence on protein glycosylation or due to some other currently unknown effect. […] The cells were then harvested and total soluble proteins were analyzed by slot blot for O-glycosylation.

[2] = tested on: SW1088 human astrocytoma cells; test: as above; assay type: cell-based; conditions: alloxan up to 1.0 mM, 96 h
Method: as §1, §2, §3

[3] = tested on: protein O-glycosylation in SW1088 human astrocytoma cells; test: Detection of O-glycosylated proteins by slot blot with anti-O-GlcNAc antibody; assay type: cell-based; conditions: SW1088 cells, 0, 0.1, 0.5 and 1.0 mM alloxan for 96 h
Method: as §1, with “As an internal control for this assay, membrane loadings of 1 (♦), 5 (▪) and 10 (▴) μg of total protein were tested and they gave similar responses to changes in the concentration of alloxan in the original cultures.” left out
Detection of glycosylated proteins: SW1088 cultures were treated with different concentrations of alloxan for 96 h. […] Protein concentrations were measured and aliquots containing 1, 5 and 10 μg of total cell proteins were applied in triplicate to a 0.2 μm nitrocellulose membrane (Amersham Biosciences). […] Immunocomplexes were detected using peroxidase-conjugated goat anti-mouse IgG (Sigma) and visualized with the ECL+kit (Amersham Biosciences). […]
as §3

[4] = target: recombinant human H-ferritin (rH-ferritin) (Homo sapiens, UniProt P02794); test: Supercoil relaxation assay for iron release from ferritin; assay type: biochemical; conditions: rH-ferritin with or without 1 mM alloxan
Method: Supercoil-relaxation assays were performed with pUC19 plasmid DNA (0.5 μg/assay). FIG. 11A is a scan showing electrophoretic profiles of pUC19 DNA incubated in the presence of recombinant H-ferritin (lanes a-e), recombinant H-ferritin+1 mM alloxan (lanes f-j) and 1 mM alloxan alone (lanes k-o). Reaction times were as indicated. Lane p, a sample of the superhelical pUC19 DNA that was not treated with ferritin. Band assignments: R, relaxed circle form; SC, superhelical topoisomers. FIG. 11B is a graph showing the mole fraction of superhelical DNA as a function of the reaction time for samples containing rH-ferritin (♦), rH-ferritin+1 mM alloxan (▪) and 1 mM alloxan alone (▴). Error bars represent S.D. values.
Supercoil relaxation assay: DNA backbone breakage was detected using a superhelical DNA relaxation assay (Tachon, P. (1989) Free Radical Res. Commun. 7, 1-10; Crowe, A. and Morgan, E. H. (1992) Brain Res. 592, 8-16). The reaction mixtures (30 μl) contained covalently closed circular pUC19 DNA (0.5 μg; Sigma) dissolved in 10 mM Hepes (pH 7.5), 50 mM NaCl, 2.5 mM MgCl2 and 2.5 mM DTT. […] The mole fractions of superhelical and relaxed forms were measured by densitometry of photographic negatives of the gels after staining with 0.5 μg/ml ethidium bromide. […]

primary rat astrocytes = test: Longevity of transfected astrocytes (MTT); assay type: cell-based
Method: FIG. 15 is a graph showing the results of the longevity of transfected astrocytes versus control. Cells were transfected and then plated at equal density.
Cells were transfected and then plated at equal density. The longevity experiments were performed in two ways. First, cell viability was monitored in cultures in which the media was changed every seven days. In the second experiment, the media was not changed for 30 days to test nutrient deprivation. An MTT assay was performed on randomly selected cell cultures from 24 well plates every two weeks to monitor cell viability. […] The non-transfected astrocytes, however, die at an increased rate compared to the ferritin transfected cells. We have continued the study out to five months on the transfected cells, but none of the non-transfected cells are alive.
Thirdly, the non-NLS ferritin translocated to the nucleus over time.

rat primary astrocytes = test: Cytotoxicity of iron compound TMHF on transfected astrocytes (MTT); assay type: cell-based; conditions: three concentrations of TMHF
Method: FIG. 16 is a graph showing the cytotoxicity profile of stress factors on rat primarily astrocytes transfected with NLS and non-NLS H ferritin construct. Cytotoxicity was determined by MTT assay after treatment with three different concentrations of soluble iron compound 3,5,5-trimethyl (hexanoyl) ferrocene (TMHF). A total of 12 trials were run in triplicate for each sample and the grand mean and SE are reported.
Cytotoxicity was determined by MTT assay after treatment with three different concentrations of soluble iron compound 3,5,5-trimethyl (hexanoyl) ferrocene (TMHF). A total of 12 trials were run in triplicate for each sample and the grand mean and SE are reported. […] Other common stressors (hydrogen peroxide, cytokines, hypoxia) will also be examined.

[5] = 100 μM DFO+1 mM alloxan in the initial growth period, then fresh medium

Sequence of recombinant human H-ferritin (rH-ferritin) (P02794 whole entry): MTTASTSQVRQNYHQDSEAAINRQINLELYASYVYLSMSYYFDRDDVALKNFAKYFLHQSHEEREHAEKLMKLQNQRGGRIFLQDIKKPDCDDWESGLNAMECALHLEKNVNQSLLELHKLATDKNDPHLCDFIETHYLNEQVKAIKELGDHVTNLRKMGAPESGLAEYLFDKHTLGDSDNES

CC(=O)N(O)CCCCCNC(=O)CCC(=O)N(O)CCCCCNC(=O)CCC(=O)N(O)CCCCCN [DFO, desferoxamine]
ferritin content in nuclear and cytoplasmic compartments (H-ferritin; 100 μM DFO): significantly decreases ferritin content in both compartments

O=C1NC(=O)C(=O)C(=O)N1 [alloxan]
viability at 96 h, 1 mM [1]: 87 ± 3% | effect on cell viability [2]: did not affect cell viability; also recorded: without significant effects on cell viability | total amount of O-glycosylated protein [3]: decreases the total amount of O-glycosylated protein in a dose-dependent manner | cytoplasmic ferritin after DFO treatment (reappearance) (H-ferritin; [5]): remained essentially unchanged | reappearance of nuclear ferritin after DFO treatment (H-ferritin; [5]): inhibited | cytoplasmic ferritin after DFO treatment (reappearance) (H-ferritin; 100 μM DFO+1 mM alloxan in the initial growth period, then fresh medium, listed as Alloxan): no effect | FAC-induced increase in nuclear ferritin (H-ferritin; 100 μM FAC+1 mM alloxan): blocked | FAC-induced increase of cytoplasmic ferritin (H-ferritin; 100 μM FAC+1 mM alloxan): not the increase of cytoplasmic ferritin | disappearance of ferritin from the nuclear fraction when DFO is added (H-ferritin; DFO + alloxan): does not prevent | iron release from ferritin (DNA nicking of pUC19) [4]: does not effect the rate or amount of iron release from ferritin; also recorded: does not cause a significant release of iron from ferritin

ferric ammonium citrate [FAC]
increase in nuclear and cytoplasmic ferritin contents relative to levels found in untreated cells (H-ferritin; 100 μM FAC added to standard medium after DFO): approx. 200%

ferritin
survival of transfected cells, media changed (primary rat astrocytes; media changed every seven days): three months | survival of transfected cells, media not changed (primary rat astrocytes; nutrient deprivation, media not changed): 30 days | ability of astrocytes to withstand iron induced stress (rat primary astrocytes): increases the ability of primary astrocytes to withstand iron induced stress
